In patent US20200306295A1, “METHOD AND DEVICE FOR ANNIHILATION OF Staphylococcus aureus” (priority 2017, published 2020):

System: 200 kinds of cytokines
Test: Fold change of 200 cytokines in homogenized wound tissue
Assay type: in vivo, Balb/c mice
From the text: To quantify the physiological condition of the wound tissues, we measured the concentrations of 200 kinds of cytokines (Table. 1) from the supernatant of homogenized tissue solution. Cytokines are small secreted proteins released by cells and have specific effect on the interactions and communications between cells (25).
To initiate the formation of a skin wound, five groups (n=5) of eight-week old female Balb/c mice (obtained from Harlan Laboratories, Indianapolis, Ind., USA) were disinfected with ethanol (70%) and shaved on the middle of the back (approximately a one-inch by one-inch square region around the injection site) one day prior to infection as described from a reported procedure (3). To prepare the bacterial inoculum, an aliquot of overnight culture of MRSA USA300 was transferred to fresh Tryptic soy broth and shaken at 37° C. until an OD600 value of ˜1.0 was achieved. The cells were centrifuged, washed once with PBS, re-centrifuged, and then re-suspended in PBS. Mice subsequently received an intradermal injection (40 μL) containing 2.40×10^9 CFU/mL MRSA USA300.
One group of mice was left untreated (negative control). Each group of mice receiving a particular treatment regimen was housed separately in a ventilated cage with appropriate bedding, food, and water. […] Mice were treated twice daily (once every 12 hours) for three days, before they were humanely euthanized via CO2 asphyxiation 12 hours after the last dose was administered. The region around the skin wound was lightly swabbed with ethanol (70%) and excised. The tissue was subsequently homogenized in PBS. The homogenized tissue was then serially diluted in PBS before plating onto mannitol salt agar plates. Plates were incubated for at least 19 hours at 37° C. before viable MRSA CFU/mL were counted for each group. Outlier was removed based upon the Dixon Q Test.

SMILES: OO [H2O2, hydrogen peroxide]
- share of 200 cytokines with negative fold change vs untreated (blue light and H2O2-treated group): Over 85%
- fold change of MBL-2 (mean) (cytokine MBL-2, group mean, wound tissue of MRSA-infected mice): −0.0587
- fold change of Meteorin (mean) (cytokine Meteorin, group mean, wound tissue of MRSA-infected mice): 0.4850
- fold change of NOV (mean) (cytokine NOV, group mean, wound tissue of MRSA-infected mice): −0.1756
- fold change of Nope (mean) (cytokine Nope, group mean, wound tissue of MRSA-infected mice): −0.2914
- fold change of OX40 Ligand (mean) (cytokine OX40 Ligand, group mean, wound tissue of MRSA-infected mice): 0.2366
- fold change of Osteoactivin (mean) (cytokine Osteoactivin, group mean, wound tissue of MRSA-infected mice): 0.4709
- fold change of P-Cadherin (mean) (cytokine P-Cadherin, group mean, wound tissue of MRSA-infected mice): −0.0660
- fold change of Periostin (mean) (cytokine Periostin, group mean, wound tissue of MRSA-infected mice): −0.5519
- fold change of PlGF-2 (mean) (cytokine PlGF-2, group mean, wound tissue of MRSA-infected mice): −0.0738
- fold change of Progranulin (mean) (cytokine Progranulin, group mean, wound tissue of MRSA-infected mice): −0.6229
- fold change of Prostasin (mean) (cytokine Prostasin, group mean, wound tissue of MRSA-infected mice): 1.1226
- fold change of Renin 1 (mean) (cytokine Renin 1, group mean, wound tissue of MRSA-infected mice): −0.3457
- fold change of TIM-1 (mean) (cytokine TIM-1, group mean, wound tissue of MRSA-infected mice): −0.1106
- fold change of Testican 3 (mean) (cytokine Testican 3, group mean, wound tissue of MRSA-infected mice): −0.1883
- fold change of Tryptase ε (mean) (cytokine Tryptase ε, group mean, wound tissue of MRSA-infected mice): 0.3620
- fold change of 4-1BB (mean, wound tissue): −0.2733
- fold change of 6Ckine (mean, wound tissue): −0.3474
- fold change of ACE (mean, wound tissue): −0.8627
- fold change of ADAMTS1 (mean, wound tissue): 0.1068
- fold change of ALK-1 (mean, wound tissue): −0.1821
- fold change of ANG-3 (mean, wound tissue): −0.1019
- fold change of ANGPTL3 (mean, wound tissue): −0.1222
- fold change of AR (mean, wound tissue): −0.1343
- fold change of Activin A (mean, wound tissue): 0.0097
- fold change of Adiponen (mean, wound tissue): −0.0278
- fold change of Artemin (mean, wound tissue): 0.0433
- fold change of Axl (mean, wound tissue): −0.1455
- fold change of B7-1 (mean, wound tissue): 0.2808
- fold change of BAFF R (mean, wound tissue): 0.0988
- fold change of BLC (mean, wound tissue): −0.1960
- fold change of BTC (mean, wound tissue): 0.9018
- fold change of C5a (mean, wound tissue): 0.1618
- fold change of CCL6 (mean, wound tissue): −0.3559
- fold change of CCL28 (mean, wound tissue): −0.6841
- fold change of CD6 (mean, wound tissue): −0.2795
- fold change of CD27 (mean, wound tissue): 0.1670
- fold change of CD27L (mean, wound tissue): 0.1373
- fold change of CD30 (mean, wound tissue): −0.0510
- fold change of CD30L (mean, wound tissue): −0.0733
- fold change of CD36 (mean, wound tissue): −0.4456
- fold change of CD40 (mean, wound tissue): −0.1007
- fold change of CD40L (mean, wound tissue): −0.2549
- fold change of CD48 (mean, wound tissue): −0.3656
- fold change of CRP (mean, wound tissue): −0.2262
- fold change of CT-1 (mean, wound tissue): −0.3499
- fold change of CTLA4 (mean, wound tissue): −0.1747
- fold change of CXCL16 (mean, wound tissue): −0.2162
- fold change of Chemerin (mean, wound tissue): −0.2510
- fold change of Chordin (mean, wound tissue): −0.0093
- fold change of Clusterin (mean, wound tissue): 0.1123
- fold change of Cystatin C (mean, wound tissue): 0.0313
- fold change of DLL4 (mean, wound tissue): −0.0364
- fold change of Decorin (mean, wound tissue): −0.0051
- fold change of Dkk-1 (mean, wound tissue): −0.4175
- fold change of Dtk (mean, wound tissue): −0.3288
- fold change of E-Cadherin (mean, wound tissue): −0.1379
- fold change of E-selectin (mean, wound tissue): −0.1083
- fold change of EDAR (mean, wound tissue): 0.0841
- fold change of EGF (mean, wound tissue): −0.2293
- fold change of Endocan (mean, wound tissue): −0.0335
- fold change of Endoglin (mean, wound tissue): −0.6886
- fold change of Eotaxin (mean, wound tissue): 0.8584
- fold change of Eotaxin-2 (mean, wound tissue): −0.5961
- fold change of Epigen (mean, wound tissue): −0.1588
- fold change of Epiregulin (mean, wound tissue): −0.2878
- fold change of Fas (mean, wound tissue): −0.3001
- fold change of Fas L (mean, wound tissue): −0.2203
- fold change of Fcg RIIB (mean, wound tissue): 0.2388
- fold change of Fetuin A (mean, wound tissue): −0.5133
- fold change of Flt-3L (mean, wound tissue): −0.2615
- fold change of Fractalkine (mean, wound tissue): 0.4416
- fold change of G-CSF (mean, wound tissue): −0.4083
- fold change of GITR (mean, wound tissue): −0.1455
- fold change of GITR L (mean, wound tissue): −0.0425
- fold change of GM-CSF (mean, wound tissue): −0.1960
- fold change of Galectin-1 (mean, wound tissue): −0.1195
- fold change of Galectin-3 (mean, wound tissue): 0.0550
- fold change of Galectin-7 (mean, wound tissue): −0.3150
- fold change of Gas 1 (mean, wound tissue): −0.7018
- fold change of Gas 6 (mean, wound tissue): −0.3085
- fold change of Granzyme B (mean, wound tissue): 0.2145
- fold change of Gremlin (mean, wound tissue): −0.8057
- fold change of H60 (mean, wound tissue): −0.0250
- fold change of HAI-1 (mean, wound tissue): −0.0794
- fold change of HGF (mean, wound tissue): 0.2749
- fold change of HGF R (mean, wound tissue): 0.0240
- fold change of I-TAC (mean, wound tissue): −0.1457
- fold change of ICAM-1 (mean, wound tissue): −0.0362
- fold change of IFNg (mean, wound tissue): −0.2366
- fold change of IFNg R1 (mean, wound tissue): −0.2832
- fold change of IGF-1 (mean, wound tissue): 0.2487
- fold change of IGFBP-2 (mean, wound tissue): 0.0153
- fold change of IGFBP-3 (mean, wound tissue): −0.2116
- fold change of IGFBP-5 (mean, wound tissue): 0.0442
- fold change of IGFBP-6 (mean, wound tissue): −0.2308
- fold change of IL-1 R4 (mean, wound tissue): 0.0090
- fold change of IL-1a (mean, wound tissue): 0.0141
- fold change of IL-1b (mean, wound tissue): 0.2075
